Results on 18 molecules are retold here after patent US20230257372A1 (CHONG KUN DANG PHARMACEUTICAL CORP., priority 2020, published 2023).

One assay concerns the target T1, human recombinant HDAC1 (Homo sapiens, UniProt Q13547).
T1 construct: purchased Enzo Life Science, Inc. BML-SE456
Nature of the assay: HDAC1 enzyme activity inhibition (HDAC Fluorimetric Drug Discovery Kit). Type of assay: biochemical. The conditions noted are these: human recombinant HDAC1; IC50 calculated with GraphPad Prism; read-out: HDAC1. The method in brief: (§1)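 Enzyme at 0.3 µg per well was reacted with 10 μM fluorogenic substrate in presence of 5-fold diluted compound, 30° C for 60 min.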

Another assay has as its target T2, human recombinant HDAC6 (Homo sapiens, UniProt Q9UBN7).
T2 construct: purchased Calbiochem Inc. 382180
T2 sequence (Q9UBN7 1-1215): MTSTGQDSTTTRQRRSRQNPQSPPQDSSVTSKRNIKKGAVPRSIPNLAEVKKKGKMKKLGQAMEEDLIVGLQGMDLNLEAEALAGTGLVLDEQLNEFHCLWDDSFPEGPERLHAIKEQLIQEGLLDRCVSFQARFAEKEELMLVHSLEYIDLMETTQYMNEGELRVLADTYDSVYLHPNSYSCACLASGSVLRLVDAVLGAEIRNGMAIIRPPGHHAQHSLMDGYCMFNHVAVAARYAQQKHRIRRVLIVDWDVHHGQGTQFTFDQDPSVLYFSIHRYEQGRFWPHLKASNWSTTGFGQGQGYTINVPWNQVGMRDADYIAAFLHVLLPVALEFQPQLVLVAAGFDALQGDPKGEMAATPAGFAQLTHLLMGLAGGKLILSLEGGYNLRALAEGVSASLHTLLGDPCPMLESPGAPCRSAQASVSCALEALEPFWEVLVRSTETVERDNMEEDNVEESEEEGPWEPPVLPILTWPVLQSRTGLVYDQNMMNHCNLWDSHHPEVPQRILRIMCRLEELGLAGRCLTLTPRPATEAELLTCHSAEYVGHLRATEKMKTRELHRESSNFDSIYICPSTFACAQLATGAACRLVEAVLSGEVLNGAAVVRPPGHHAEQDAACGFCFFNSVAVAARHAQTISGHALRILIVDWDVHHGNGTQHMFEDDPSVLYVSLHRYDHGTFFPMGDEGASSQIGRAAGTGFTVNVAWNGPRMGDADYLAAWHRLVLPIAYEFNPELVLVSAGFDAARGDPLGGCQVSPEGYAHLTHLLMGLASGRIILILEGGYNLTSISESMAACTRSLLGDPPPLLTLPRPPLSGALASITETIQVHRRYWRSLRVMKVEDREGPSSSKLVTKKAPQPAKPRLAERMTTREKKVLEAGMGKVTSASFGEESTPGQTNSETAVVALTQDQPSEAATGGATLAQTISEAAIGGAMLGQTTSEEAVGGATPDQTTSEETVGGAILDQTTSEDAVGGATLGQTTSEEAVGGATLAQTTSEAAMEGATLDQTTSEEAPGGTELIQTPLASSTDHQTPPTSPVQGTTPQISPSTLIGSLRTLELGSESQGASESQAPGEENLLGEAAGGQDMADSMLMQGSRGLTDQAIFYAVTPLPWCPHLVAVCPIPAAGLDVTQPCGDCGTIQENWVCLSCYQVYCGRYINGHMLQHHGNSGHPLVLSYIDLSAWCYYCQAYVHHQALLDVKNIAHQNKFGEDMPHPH
The assay can be described thus: HDAC6 enzyme activity inhibition (HDAC Fluorimetric Drug Discovery Kit). Type of assay: biochemical. The conditions noted are these: for HDAC6 selectivity (fold): HDAC1 IC50 / HDAC6 IC50; for IC50: human recombinant HDAC6, IC50 calculated with GraphPad Prism. The method in brief:
as §1

A value given as a limit tells only on which side of the number the result lay.

T1 sequence (Q13547 whole entry): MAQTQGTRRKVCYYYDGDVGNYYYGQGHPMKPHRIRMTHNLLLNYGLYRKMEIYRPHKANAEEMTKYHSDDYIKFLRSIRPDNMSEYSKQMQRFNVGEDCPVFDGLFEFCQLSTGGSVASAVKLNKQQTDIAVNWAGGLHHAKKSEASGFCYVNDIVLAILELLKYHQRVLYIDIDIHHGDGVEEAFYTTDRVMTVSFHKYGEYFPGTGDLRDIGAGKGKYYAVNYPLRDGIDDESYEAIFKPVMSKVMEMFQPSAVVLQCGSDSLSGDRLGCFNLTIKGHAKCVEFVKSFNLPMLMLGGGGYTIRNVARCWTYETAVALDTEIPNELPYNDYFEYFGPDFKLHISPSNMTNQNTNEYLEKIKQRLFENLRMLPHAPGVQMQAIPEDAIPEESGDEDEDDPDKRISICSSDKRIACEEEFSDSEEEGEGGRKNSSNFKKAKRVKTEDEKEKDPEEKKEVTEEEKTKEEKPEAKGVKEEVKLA

For the molecule `FC(F)c1nnc(-c2ccc(Cn3cc(-c4ccc5cn[nH]c5c4)nn3)nc2)o1` [Compound 4340, 2-(6-((4-(1H-indazol-6-yl)-1H-1,2,3-triazol-1-yl)methyl)pyridin-3-yl)-5-(difluoromethyl)-1,3,4-oxadiazole], the IC50 on human recombinant HDAC1 is > 50000 nM. At human recombinant HDAC6, the “HDAC6 selectivity (fold)” value stood at 7575 fold and the IC50 is 6.6 nM.
As to `FC(F)c1nnc(-c2ccc(Cn3cc(-c4ccc5[nH]ncc5c4)nn3)nc2)o1` [Compound 4343, 2-(6-((4-(1H-indazol-5-yl)-1H-1,2,3-triazol-1-yl)methyl)pyridin-3-yl)-5-(difluoromethyl)-1,3,4-oxadiazole], the IC50 at human recombinant HDAC1 is > 50000 nM. Moreover, on human recombinant HDAC6, the “HDAC6 selectivity (fold)” value is 5882 fold and the IC50 is 8.5 nM.
The like results for `CC(C)(F)CN1CCC(c2cccc(-c3cn(Cc4ccc(-c5nnc(C(F)F)o5)cc4F)nn3)c2)CC1` [Compound 4349, 2-(difluoromethyl)-5-(3-fluoro-4-((4-(3-(1-(2-fluoro-2-methylpropyl)piperidin-4-yl)phenyl)-1H-1,2,3-triazol-1-yl)methyl)phenyl)-1,3,4-oxadiazole] were, in that order, > 50000 nM, 137 fold and 363 nM.
The like results for `CCC(F)(CC)CN1CCC(c2cccc(-c3cn(Cc4ccc(-c5nnc(C(F)F)o5)cc4F)nn3)c2)CC1` [Compound 4350, 2-(difluoromethyl)-5-(4-((4-(3-(1-(2-ethyl-2-fluorobutyl)piperidin-4-yl)phenyl)-1H-1,2,3-triazol-1-yl)methyl)-3-fluorophenyl)-1,3,4-oxadiazole] were, in that order, > 50000 nM, 82 fold and 605 nM.
The like results for `CN(C)C(C)(C)C(=O)Nc1cccc(-c2cn(Cc3ccc(-c4nnc(C(F)F)o4)cc3)nn2)c1` [Compound 4351, N-(3-(1-(4-(5-(difluoromethyl)-1,3,4-oxadiazol-2-yl)benzyl)-1H-1,2,3-triazol-4-yl)phenyl)-2-(dimethylamino)-2-methylpropanamide] were, in that order, > 50000 nM, 1193 fold and 41.9 nM.
With `CN(C)CC(=O)Nc1cccc(-c2cn(Cc3ccc(-c4nnc(C(F)F)o4)cc3F)nn2)c1` [Compound 4352, N-(3-(1-(4-(5-(difluoromethyl)-1,3,4-oxadiazol-2-yl)-2-fluorobenzyl)-1H-1,2,3-triazol-4-yl)phenyl)-2-(dimethylamino)acetamide], the IC50 at human recombinant HDAC1 is > 50000 nM. For the same molecule, on human recombinant HDAC6, the “HDAC6 selectivity (fold)” value worked out at 1562 fold and the IC50 is 33.2 nM.
Regarding `CN(C)C(C)(C)C(=O)Nc1cccc(-c2cn(Cc3ccc(-c4nnc(C(F)F)o4)cc3F)nn2)c1` [Compound 4353], the figures for the IC50 on human recombinant HDAC1 and at human recombinant HDAC6 were > 50000 nM and 41.6 nM, respectively. Further, the “HDAC6 selectivity (fold)” value at human recombinant HDAC6 was 1201 fold.
On to `CN1CCc2cc(-c3cn(Cc4ccc(-c5nnc(C(F)F)o5)cc4F)nn3)ccc2C1` [Compound 4358, 2-(difluoromethyl)-5-(3-fluoro-4-((4-(2-methyl-1,2,3,4-tetrahydroisoquinolin-6-yl)-1H-1,2,3-triazol-1-yl)methyl)phenyl)-1,3,4-oxadiazole], for which the IC50 on human recombinant HDAC1 is > 50000 nM; on human recombinant HDAC6, 33 nM. Moreover, the “HDAC6 selectivity (fold)” value at human recombinant HDAC6 is reported as 1515 fold.
As for `CCN1CCc2cc(-c3cn(Cc4ccc(-c5nnc(C(F)F)o5)cc4F)nn3)ccc2C1` [Compound 4359, 2-(difluoromethyl)-5-(4-((4-(2-ethyl-1,2,3,4-tetrahydroisoquinolin-6-yl)-1H-1,2,3-triazol-1-yl)methyl)-3-fluorophenyl)-1,3,4-oxadiazole], the IC50 on human recombinant HDAC1 is > 50000 nM. In addition, at human recombinant HDAC6, the “HDAC6 selectivity (fold)” value came out at 1182 fold and the IC50 was 42.3 nM.
Turning to `CC(C)N1CCc2cc(-c3cn(Cc4ccc(-c5nnc(C(F)F)o5)cc4F)nn3)ccc2C1` [Compound 4360, 2-(difluoromethyl)-5-(3-fluoro-4-((4-(2-isopropyl-1,2,3,4-tetrahydroisoquinolin-6-yl)-1H-1,2,3-triazol-1-yl)methyl)phenyl)-1,3,4-oxadiazole], the IC50 at human recombinant HDAC1 was > 50000 nM. For the same molecule, on human recombinant HDAC6, the “HDAC6 selectivity (fold)” value stood at 881 fold and the IC50 is 56.7 nM.
The like results for `Fc1cc(-c2nnc(C(F)F)o2)ccc1Cn1cc(-c2ccc3c(c2)CCN(C2COC2)C3)nn1` [Compound 4362, 2-(difluoromethyl)-5-(3-fluoro-4-((4-(2-(oxetan-3-yl)-1,2,3,4-tetrahydroisoquinolin-6-yl)-1H-1,2,3-triazol-1-yl)methyl)phenyl)-1,3,4-oxadiazole] were, in that order, > 50000 nM, 762 fold and 65.6 nM.
On to `CN1CCc2ccc(-c3cn(Cc4ccc(-c5nnc(C(F)F)o5)cc4F)nn3)cc2C1` [Compound 4363, 2-(difluoromethyl)-5-(3-fluoro-4-((4-(2-methyl-1,2,3,4-tetrahydroisoquinolin-7-yl)-1H-1,2,3-triazol-1-yl)methyl)phenyl)-1,3,4-oxadiazole], for which the IC50 was > 50000 nM on human recombinant HDAC1 and 36.1 nM on human recombinant HDAC6. The “HDAC6 selectivity (fold)” value at human recombinant HDAC6 was 1385 fold.
For the molecule `CCN1CCc2ccc(-c3cn(Cc4ccc(-c5nnc(C(F)F)o5)cc4F)nn3)cc2C1` [Compound 4364, 2-(difluoromethyl)-5-(4-((4-(2-ethyl-1,2,3,4-tetrahydroisoquinolin-7-yl)-1H-1,2,3-triazol-1-yl)methyl)-3-fluorophenyl)-1,3,4-oxadiazole], at human recombinant HDAC1, the IC50 was > 50000 nM. Moreover, on human recombinant HDAC6, the “HDAC6 selectivity (fold)” value is recorded as 1160 fold and the IC50 is 43.1 nM.
The matching figures for `CC(C)N1CCc2ccc(-c3cn(Cc4ccc(-c5nnc(C(F)F)o5)cc4F)nn3)cc2C1` [Compound 4365, 2-(difluoromethyl)-5-(3-fluoro-4-((4-(2-isopropyl-1,2,3,4-tetrahydroisoquinolin-7-yl)-1H-1,2,3-triazol-1-yl)methyl)phenyl)-1,3,4-oxadiazole]: > 50000 nM, 1089 fold and 45.9 nM.
The like results for `Fc1cc(-c2nnc(C(F)F)o2)ccc1Cn1cc(-c2ccc3c(c2)CN(C2COC2)CC3)nn1` [Compound 4367, 2-(difluoromethyl)-5-(3-fluoro-4-((4-(2-(oxetan-3-yl)-1,2,3,4-tetrahydroisoquinolin-7-yl)-1H-1,2,3-triazol-1-yl)methyl)phenyl)-1,3,4-oxadiazole] were, in that order, > 50000 nM, 1210 fold and 41.3 nM.
The like results for `CCN1CCN(c2cccc(-c3cn(Cc4ccc(-c5nnc(C(F)F)o5)cc4)nn3)c2)CC1` [Compound 4368, 2-(difluoromethyl)-5-(4-((4-(3-(4-ethylpiperazin-1-yl)phenyl)-1H-1,2,3-triazol-1-yl)methyl)phenyl)-1,3,4-oxadiazole] were, in that order, > 50000 nM, 1533 fold and 32.6 nM.
In the case of `CCCN1CCN(c2cccc(-c3cn(Cc4ccc(-c5nnc(C(F)F)o5)cc4)nn3)c2)CC1` [Compound 4369, 2-(difluoromethyl)-5-(4-((4-(3-(4-propylpiperazin-1-yl)phenyl)-1H-1,2,3-triazol-1-yl)methyl)phenyl)-1,3,4-oxadiazole], the IC50 at human recombinant HDAC1 was > 50000 nM. For the same molecule, at human recombinant HDAC6, the “HDAC6 selectivity (fold)” value came out at 912 fold and the IC50 is 54.8 nM.
The like results for `CCC(=O)N1CCN(c2cccc(-c3cn(Cc4ccc(-c5nnc(C(F)F)o5)cc4)nn3)c2)CC1` [Compound 4372, 1-(4-(3-(1-(4-(5-(difluoromethyl)-1,3,4-oxadiazol-2-yl)benzyl)-1H-1,2,3-triazol-4-yl)phenyl)piperazin-1-yl)propan-1-one] were, in that order, > 50000 nM, 724 fold and 69 nM.
